Data on five molecules can be found in PubChem BioAssay AID1259407 (Chemical Carcinogenesis Research Information System (CCRIS), 2018).

The data set concerns CCRIS mutagenicity, Ames/micronucleus/aberration tests. The experiment in a line: CCRIS mutagenicity studies. From the text: The CCRIS database contains chemical records with carcinogenicity, mutagenicity, tumor promotion, and tumor inhibition test results. It was developed by the National Cancer Institute (NCI). Data are derived from studies cited in primary journals, current awareness tools, NCI reports, and other sources. Test results have been reviewed by experts in carcinogenesis and mutagenesis.
CCRIS provides historical information from the years 1985 - 2011. It is no longer updated.
This is an archive assay for CCRIS mutagenicity studies.

Setting [1] is: Test System: AMES SALMONELLA TYPHIMURIUM, Strain/Indicator: TA98, Metabolic Activation: NONE, Method: PREINCUBATION
[2] abbreviates: Test System: AMES SALMONELLA TYPHIMURIUM, Strain/Indicator: TA100, Metabolic Activation: NONE, Method: PREINCUBATION
Setting [3] is: Test System: AMES SALMONELLA TYPHIMURIUM, Strain/Indicator: TA97, Metabolic Activation: NONE, Method: STANDARD PLATE.
The mark [4] stands for this setting: Test System: AMES SALMONELLA TYPHIMURIUM, Strain/Indicator: TA98, Metabolic Activation: NONE, Method: STANDARD PLATE.
Setting [5] is: Test System: AMES SALMONELLA TYPHIMURIUM, Strain/Indicator: TA100, Metabolic Activation: NONE, Method: STANDARD PLATE.
Setting [6] is: Test System: AMES SALMONELLA TYPHIMURIUM, Strain/Indicator: TA1535, Metabolic Activation: NONE, Method: STANDARD PLATE.

Calls of active or inactive are those of the source. The rule behind the calls is not given here.

As to `O=S(=O)(O)c1ccc2c(N=Nc3ccccc3)c(O)ccc2c1`, the mutagenic call reads like this: under setting [1], “inactive; negative”; (Test System: AMES SALMONELLA TYPHIMURIUM, Strain/Indicator: TA98, Metabolic Activation: RAT, LIVER, S-9, PHENOBARBITAL, Method: PREINCUBATION) “inactive; negative”; under setting [2], “inactive; negative”; (Test System: AMES SALMONELLA TYPHIMURIUM, Strain/Indicator: TA100, Metabolic Activation: RAT, LIVER, S-9, PHENOBARBITAL, Method: PREINCUBATION) “inactive; negative”.
For the molecule `N/C(=N\O)c1cc(O)c(O)c(O)c1`, the mutagenic call is, setting by setting: under setting [3], “active; positive”; (Test System: AMES SALMONELLA TYPHIMURIUM, Strain/Indicator: TA97, Metabolic Activation: RAT, LIVER, S-9, DELOR 103, Method: STANDARD PLATE) “active; positive”; under setting [4], “inactive; negative”; (Test System: AMES SALMONELLA TYPHIMURIUM, Strain/Indicator: TA98, Metabolic Activation: RAT, LIVER, S-9, DELOR 103, Method: STANDARD PLATE) “inactive; negative”; under setting [5], “inactive; negative”; (Test System: AMES SALMONELLA TYPHIMURIUM, Strain/Indicator: TA100, Metabolic Activation: RAT, LIVER, S-9, DELOR 103, Method: STANDARD PLATE) “inactive; negative”. For the same molecule, the mutagenic call by setting is: (Test System: AMES SALMONELLA TYPHIMURIUM, Strain/Indicator: TA102, Metabolic Activation: NONE, Method: STANDARD PLATE) “inactive; negative”; (Test System: AMES SALMONELLA TYPHIMURIUM, Strain/Indicator: TA102, Metabolic Activation: RAT, LIVER, S-9, DELOR 103, Method: STANDARD PLATE) “inactive; negative”.
As to `CCN(CC)CCNc1ccc(CO)c2sc3ccccc3c(=O)c12`, the mutagenic call reads like this: (Test System: AMES SALMONELLA TYPHIMURIUM, Strain/Indicator: TA98, Metabolic Activation: HAMSTER, LIVER, S-9, AROCLOR 1254 (30%), Method: PREINCUBATION) “active; positive”; under setting [1], “active; positive”; under setting [4], “active; positive”; (Test System: AMES SALMONELLA TYPHIMURIUM, Strain/Indicator: TA98, Metabolic Activation: RAT, LIVER, S-9, AROCLOR 1254 (30%), Method: PREINCUBATION) “active; positive”; (Test System: AMES SALMONELLA TYPHIMURIUM, Strain/Indicator: TA98, Metabolic Activation: RAT, LIVER, S-9, AROCLOR 1254 OR PHENOBARBITOL, Method: STANDARD PLATE) “active; positive”; (Test System: AMES SALMONELLA TYPHIMURIUM, Strain/Indicator: TA98, Metabolic Activation: RAT, LIVER, S-9, KC500 OR PHENOBARBITAL, Method: LIQUID SUSPENSION) “active; positive”. Besides, the mutagenic call was “active; positive” (Test System: AMES SALMONELLA TYPHIMURIUM, Strain/Indicator: TA100, Metabolic Activation: HAMSTER, LIVER, S-9, AROCLOR 1254 (30%), Method: PREINCUBATION); “active; positive” under setting [2]; “active; positive” under setting [5]; “active; positive” (Test System: AMES SALMONELLA TYPHIMURIUM, Strain/Indicator: TA100, Metabolic Activation: RAT, LIVER, S-9, AROCLOR 1254 (30%), Method: PREINCUBATION); “active; positive” (Test System: AMES SALMONELLA TYPHIMURIUM, Strain/Indicator: TA100, Metabolic Activation: RAT, LIVER, S-9, AROCLOR 1254 OR PHENOBARBITOL, Method: STANDARD PLATE); “active; positive” (Test System: AMES SALMONELLA TYPHIMURIUM, Strain/Indicator: TA100, Metabolic Activation: RAT, LIVER, S-9, KC500 OR PHENOBARBITAL, Method: LIQUID SUSPENSION). Moreover, the mutagenic call runs as follows: under setting [6], “inactive; negative”; (Test System: AMES SALMONELLA TYPHIMURIUM, Strain/Indicator: TA1535, Metabolic Activation: RAT, LIVER, S-9, AROCLOR 1254 OR PHENOBARBITOL, Method: STANDARD PLATE) “inactive; negative”; (Test System: AMES SALMONELLA TYPHIMURIUM, Strain/Indicator: TA1537, Metabolic Activation: NONE, Method: STANDARD PLATE) “active; positive”; (Test System: AMES SALMONELLA TYPHIMURIUM, Strain/Indicator: TA1537, Metabolic Activation: RAT, LIVER, S-9, AROCLOR 1254 OR PHENOBARBITOL, Method: STANDARD PLATE) “active; positive”; (Test System: AMES SALMONELLA TYPHIMURIUM, Strain/Indicator: TA1537, Metabolic Activation: RAT, LIVER, S-9, KC500 OR PHENOBARBITAL, Method: LIQUID SUSPENSION) “active; positive”; (Test System: AMES SALMONELLA TYPHIMURIUM, Strain/Indicator: TA1538, Metabolic Activation: NONE, Method: STANDARD PLATE) “active; positive”. The mutagenic call (Test System: AMES SALMONELLA TYPHIMURIUM, Strain/Indicator: TA1538, Metabolic Activation: RAT, LIVER, S-9, AROCLOR 1254 OR PHENOBARBITOL, Method: STANDARD PLATE) is “active; positive”; the mutagenic call (Test System: AMES SALMONELLA TYPHIMURIUM, Strain/Indicator: TA1538, Metabolic Activation: RAT, LIVER, S-9, KC500 OR PHENOBARBITAL, Method: LIQUID SUSPENSION) was “active; positive”; the mutagenic call (Test System: CHINESE HAMSTER OVARY, Strain/Indicator: CHO-K1-BH4 (HGPRT), Metabolic Activation: NONE, Method: SUSPENSION/PLATE) is “active; positive”; the mutagenic call (Test System: MOUSE LYMPHOMA, Strain/Indicator: L5178Y (TK+/TK-), Metabolic Activation: NONE, Method: SUSPENSION/PLATE) was “active; positive”; the mutagenic call (Test System: MOUSE LYMPHOMA, Strain/Indicator: L5178Y (TK+/TK-), Metabolic Activation: RAT, LIVER, S-9, AROCLOR 1254, Method: SUSPENSION/PLATE) was “active; positive”.
As for `COc1ccc2[nH]cc(CCNC(C)=O)c2c1`, the mutagenic call is “inactive; negative” under setting [3]; “inactive; negative” (Test System: AMES SALMONELLA TYPHIMURIUM, Strain/Indicator: TA97, Metabolic Activation: RAT, LIVER, S-9, AROCLOR 1254, Method: STANDARD PLATE); “inactive; negative” (Test System: AMES SALMONELLA TYPHIMURIUM, Strain/Indicator: TA97A, Metabolic Activation: NONE, Method: STANDARD PLATE); “inactive; negative” (Test System: AMES SALMONELLA TYPHIMURIUM, Strain/Indicator: TA97A, Metabolic Activation: RAT LIVER S-9, PHENOBARBITOL/BETA-NAPHTHOFLAVONE, Method: STANDARD PLATE); “inactive; negative” under setting [4]; “inactive; negative” (Test System: AMES SALMONELLA TYPHIMURIUM, Strain/Indicator: TA98, Metabolic Activation: RAT LIVER S-9, PHENOBARBITOL/BETA-NAPHTHOFLAVONE, Method: STANDARD PLATE). The mutagenic call runs as follows: (Test System: AMES SALMONELLA TYPHIMURIUM, Strain/Indicator: TA98, Metabolic Activation: RAT, LIVER, S-9, AROCLOR 1254, Method: STANDARD PLATE) “inactive; negative”; under setting [2], “inactive; negative”; under setting [5], “inactive; negative”; (Test System: AMES SALMONELLA TYPHIMURIUM, Strain/Indicator: TA100, Metabolic Activation: RAT LIVER S-9, PHENOBARBITOL/BETA-NAPHTHOFLAVONE, Method: PREINCUBATION) “inactive; negative”; (Test System: AMES SALMONELLA TYPHIMURIUM, Strain/Indicator: TA100, Metabolic Activation: RAT LIVER S-9, PHENOBARBITOL/BETA-NAPHTHOFLAVONE, Method: STANDARD PLATE) “inactive; negative”; (Test System: AMES SALMONELLA TYPHIMURIUM, Strain/Indicator: TA100, Metabolic Activation: RAT, LIVER, S-9, AROCLOR 1254, Method: STANDARD PLATE) “inactive; negative”. For the same molecule, the mutagenic call is, setting by setting: under setting [6], “inactive; negative”; (Test System: AMES SALMONELLA TYPHIMURIUM, Strain/Indicator: TA1535, Metabolic Activation: RAT LIVER S-9, PHENOBARBITOL/BETA-NAPHTHOFLAVONE, Method: STANDARD PLATE) “inactive; negative”; (Test System: E.COLI, Strain/Indicator: WP2/UVRA, Metabolic Activation: NONE, Method: STANDARD PLATE) “inactive; negative”; (Test System: E.COLI, Strain/Indicator: WP2/UVRA, Metabolic Activation: RAT LIVER S-9, PHENOBARBITOL/BETA-NAPHTHOFLAVONE, Method: STANDARD PLATE) “inactive; negative”.
As for `CCCCl`, the mutagenic call (End Point: In vitro micronucleus, Test System: Chinese Hamster Ovary (CHO-WBL) cells, Metabolic Activation: None) is “inactive; negative”.
